Measurements published in patent publication US6428974B1, “Microplate for drug susceptibility testing containing a drug, a color reagent, and color suppressant” (Kanto Kagaku Kabushiki Kaisha, priority 1998, dated 2002).
Values after ≈ are worked out from the molar mass of the structure shown.

Legend:
[1] = system: Candida albicans ATCC 24433; assay: Turbidity method (Japanese Society for Medical Mycology microdilution); format: cell-based; details: C. albicans ATCC 24433, range over repeated tests (n = 10); for MIC: Candida albicans, ATCC24433
Experimental: (§1) For the comparison was used the 1.2% glucose MOPS buffered RPMI 1640medium and it was carried out according to the proposed method of Japanese Society for Medical Mycology (the microdilution method of 0.2 ml incubation system).

[2] = system: Candida albicans ATCC 90028; assay: as above; format: cell-based; details: C. albicans ATCC 90028, range over repeated tests (n = 10); for MIC: Candida albicans, ATCC90028
Experimental: as §1

Candida krusei ATCC 6258 [3] = assay: as above; format: cell-based; details: C. krusei ATCC 6258, range over repeated tests (n = 10); for MIC: Pichia kudriavzevii, ATCC6258
Experimental: as §1

[4] = system: Candida parapsilosis ATCC 22019; assay: as above; format: cell-based; details: C. parapsilosis ATCC 22019, range over repeated tests (n = 10); for MIC: Lodderomyces parapsilosis, ATCC22019
Experimental: as §1

[5] = system: Candida parapsilosis ATCC 90018; assay: as above; format: cell-based; details: C. parapsilosis ATCC 90018, range over repeated tests (n = 7); for MIC: Lodderomyces parapsilosis, ATCC90018
Experimental: as §1

[6] = system: Candida tropicalis ATCC 750; assay: as above; format: cell-based; details: C. tropicalis ATCC 750, range over repeated tests (n = 10); for MIC: Candida tropicalis, ATCC750
Experimental: as §1

[7] = system: Candida albicans ATCC 24433; assay: Microplate method of the invention (WST-8 color reagent); format: cell-based; details: C. albicans ATCC 24433, range over repeated tests (n = 10), AMPH complete inhibition, 5-FC/FLCZ/MCZ IC80, 24 or 48 hrs, 35°C; for MIC: Candida albicans, ATCC24433
Experimental: (§2) Four drugs of AMPH, 5-FC, FLCZ and MCZ were considered. The drug solution for the solid phase formation on the microplate was prepared as follows. The drug was dissolved in dimethylsulfoxide (DMSO) or diluted by using it. The solution was prepared so that it was AMPH 128 μg/ml, 5-FC 512 μg/ml, FLCZ 512 μg/ml or MCZ 256 μg/ml. By the use of the prepared drug the two fold dilution series was prepared in an appropriate concentration range with DMSO or water, and separately infused by 25 μl/well and formed into the dry and solid phase under vacuum (13.3-26.6 Pa) for 24 hrs. After the solid phase formation of the antifungal, the color reagent consisting of WST-8 0.7 mM, 1-methoxy PMS 3.5 μM, potassium ferricyanide 0.5 mM and potassium ferrocyanide 0.5 mM was separately infused by 20 μl/well and formed into the dry and solid phase under vacuum for 24 hrs.
(§3) By using the colony within 24 hrs. in the incubation was prepared the fungal suspension with the sterile saline 5 ml. The fungal suspension corresponding to McFarland # 0.5 was prepared by measuring the absorbancy at the wave length of 530 nm. 0.1 ml of the prepared fungal suspension was taken by the micropipette, added to 0.9 ml of the 1.2% glucose MOPS buffered PRMI 1640 medium, and stirred thoroughly by the vortex-mixer, and then 0.1 ml of this was taken by the micropipette, added to 20 ml of the […] MOPS buffered PRMI 1640 medium, and stirred thoroughly by the vortex-mixer to prepare the replicated fungal suspension (0.5×10^3−2.5×10^3 cfu/ml). The replicated fungal suspension prepared was separately inoculated by 200 μl into each well of the microplate dryly fixed with the drug having the concentration gradient of the two fold dilution prepared in the above B. After lidding the plate the aerobic culture was done at 35±1° C. The absorbancy at 630 nm of the growth control (the testing fungal strains were incubated in the well wherein the antifungal agents and the color reagent was not formed into the solid phase) after the 24 hrs. incubation was measured.
(§4) After stirring the microplate under shaking for 1 min., the absorbency of the dominant wave length 450 nm and the complementary wavelength 630 nm was measured, and the reading was carried out by the following method.
(§5) 1. The minimum concentration showing the absorbancy in AMPH equal to or less than that in the negative control was made the minimum growth inhibition concentration (MIC).
(§6) 2. The 80% growth inhibition concentration (IC 80) was read in 5-Fc, FLCZ and MCZ. The drug concentration of the well showing the absorbancy equal to or less than the absorbency obtained by the following equation was made MIC.
(§7) (IC80=(positive control−negative control)×0.2 +negative control)

[8] = system: Candida albicans ATCC 90028; assay: as above; format: cell-based; details: C. albicans ATCC 90028, range over repeated tests (n = 10), AMPH complete inhibition, 5-FC/FLCZ/MCZ IC80, 24 or 48 hrs, 35°C; for MIC: Candida albicans, ATCC90028
Experimental: as §2, §3, §4, §5, §6, §7

Candida krusei ATCC 6258 [9] = assay: as above; format: cell-based; details: C. krusei ATCC 6258, range over repeated tests (n = 10), AMPH complete inhibition, 5-FC/FLCZ/MCZ IC80, 24 or 48 hrs, 35°C; for MIC: Pichia kudriavzevii, ATCC6258
Experimental: as §2, §3, §4, §5, §6, §7

[10] = system: Candida parapsilosis ATCC 22019; assay: as above; format: cell-based; details: C. parapsilosis ATCC 22019, range over repeated tests (n = 10), AMPH complete inhibition, 5-FC/FLCZ/MCZ IC80, 24 or 48 hrs, 35°C; for MIC: Lodderomyces parapsilosis, ATCC22019
Experimental: as §2, §3, §4, §5, §6, §7

[11] = system: Candida parapsilosis ATCC 90018; assay: as above; format: cell-based; details: C. parapsilosis ATCC 90018, range over repeated tests (n = 7), AMPH complete inhibition, 5-FC/FLCZ/MCZ IC80, 24 or 48 hrs, 35°C; for MIC: Lodderomyces parapsilosis, ATCC90018
Experimental: as §2, §3, §4, §5, §6, §7

[12] = system: Candida tropicalis ATCC 750; assay: as above; format: cell-based; details: C. tropicalis ATCC 750, range over repeated tests (n = 10), AMPH complete inhibition, 5-FC/FLCZ/MCZ IC80, 24 or 48 hrs, 35°C; for MIC: Candida tropicalis, ATCC750
Experimental: as §2, §3, §4, §5, §6, §7

[13] = system: Candida parapsilosis ATCC 22019; details: C. parapsilosis ATCC 22019; MIC acceptable range of NCCLS M27-A; cited from earlier work
Candida krusei ATCC 6258 [14] = details: C. krusei ATCC 6258; MIC acceptable range of NCCLS M27-A; cited from earlier work
[15] = system: Candida albicans ATCC 90028; details: C. albicans ATCC 90028; MIC acceptable range of NCCLS M27-A; cited from earlier work
[16] = system: Candida albicans ATCC 24433; details: C. albicans ATCC 24433; MIC acceptable range of NCCLS M27-A; cited from earlier work
[17] = system: Candida parapsilosis ATCC 90018; details: C. parapsilosis ATCC 90018; MIC acceptable range of NCCLS M27-A; cited from earlier work
[18] = system: Candida tropicalis ATCC 750; details: C. tropicalis ATCC 750; MIC acceptable range of NCCLS M27-A; cited from earlier work

Row | SMILES | MIC [1] [µg/mL] | MIC [2] [µg/mL] | MIC (Candida krusei ATCC 6258 [3]) [µg/mL] | MIC [4] [µg/mL] | MIC [5] [µg/mL] | MIC [6] [µg/mL] | MIC [7] [µg/mL] | MIC [8] [µg/mL] | MIC (Candida krusei ATCC 6258 [9]) [µg/mL] | MIC [10] [µg/mL] | MIC [11] [µg/mL] | MIC [12] [µg/mL] | MIC reference range [13] [µg/mL] | MIC reference range (Candida krusei ATCC 6258 [14]) [µg/mL] | MIC reference range [15] [µg/mL] | MIC reference range [16] [µg/mL] | MIC reference range [17] [µg/mL] | MIC reference range [18] [µg/mL] | also measured
1 | Nc1[nH]c(=O)ncc1F [5-FC, Flucytosine] | 0.5 to 2 (≈ 3.87 to 15.5 µM) | 0.25 to 2 (≈ 1.94 to 15.5 µM) | 8 to 16 (≈ 62 to 124 µM) | 0.12 to 0.5 (≈ 0.93 to 3.87 µM) | 0.12 (≈ 0.93 µM) | 0.12 (≈ 0.93 µM) | 0.5 to 2 (≈ 3.87 to 15.5 µM) | 0.25 to 1 (≈ 1.94 to 7.75 µM) | 8 to 16 (≈ 62 to 124 µM) | 0.12 to 0.5 (≈ 0.93 to 3.87 µM) | 0.12 (≈ 0.93 µM) | 0.12 (≈ 0.93 µM) | 0.12 to 0.5 | 4.0 to 16 | 0.5 to 2.0 | 1.0 to 4.0 | 0.12 to 0.25 | 0.12 to 0.25 | –
2 | Clc1ccc(COC(Cn2ccnc2)c2ccc(Cl)cc2Cl)c(Cl)c1 (stereo not drawn) [MCZ, Miconazole] | 0.06 to 0.5 (≈ 0.144 to 1.2 µM) | 0.06 to 0.12 (≈ 0.144 to 0.288 µM) | 0.25 to 1 (≈ 0.601 to 2.4 µM) | 0.25 to 0.5 (≈ 0.601 to 1.2 µM) | 0.06 to 0.25 (≈ 0.144 to 0.601 µM) | 0.12 to 1 (≈ 0.288 to 2.4 µM) | 0.06 to 1 (≈ 0.144 to 2.4 µM) | 0.06 to 0.12 (≈ 0.144 to 0.288 µM) | 0.25 to 1 (≈ 0.601 to 2.4 µM) | 0.5 to 1 (≈ 1.2 to 2.4 µM) | 0.12 to 0.5 (≈ 0.288 to 1.2 µM) | 0.25 to 2 (≈ 0.601 to 4.81 µM) | – | – | – | – | – | – | –
3 | C[C@@H]1[C@H](O)[C@@H](C)/C=C/C=C/C=C/C=C/C=C/C=C/C=C/[C@H](O[C@@H]2O[C@H](C)[C@@H](O)[C@H](N)[C@@H]2O)C[C@@H]2O[C@](O)(C[C@@H](O)C[C@@H](O)[C@H](O)CC[C@@H](O)C[C@@H](O)CC(=O)O[C@H]1C)C[C@H](O)[C@H]2C(=O)O [AMPH, Amphotericine B] | – | – | – | – | – | – | – | – | – | – | – | – | 0.25 to 1.0 | 0.5 to 2.0 | 0.5 to 2.0 | 0.25 to 1.0 | 0.5 to 2.0 | 0.5 to 2.0 | MIC, Turbidity method [1]: 0.12 to 0.5 µg/mL; MIC, Turbidity method [2]: 0.12 to 0.5 µg/mL; MIC, Turbidity method (Candida krusei ATCC 6258 [3]): 0.12 to 0.5 µg/mL; MIC, Turbidity method [4]: 0.06 to 0.25 µg/mL; MIC, Turbidity method [5]: 0.12 to 0.25 µg/mL; MIC, Turbidity method [6]: 0.12 to 0.5 µg/mL; MIC, Method of the invention [7]: 0.12 to 0.5 µg/mL; MIC, Method of the invention [8]: 0.12 to 0.5 µg/mL; MIC, Method of the invention (Candida krusei ATCC 6258 [9]): 0.25 to 0.5 µg/mL; MIC, Method of the invention [10]: 0.12 to 1.0 µg/mL; MIC, Method of the invention [11]: 0.12 to 0.25 µg/mL; MIC, Method of the invention [12]: 0.12 to 0.5 µg/mL
4 | OC(Cn1cncn1)(Cn1cncn1)c1ccc(F)cc1F [FLCZ, Fluconazole] | 0.12 to 1 (≈ 0.392 to 3.27 µM) | 0.12 to 0.25 (≈ 0.392 to 0.816 µM) | 8 to 64 (≈ 26.1 to 209 µM) | 1 to 2 (≈ 3.27 to 6.53 µM) | 0.5 (≈ 1.63 µM) | 0.5 to 1 (≈ 1.63 to 3.27 µM) | 0.25 to 8 (≈ 0.816 to 26.1 µM) | 0.25 to 1 (≈ 0.816 to 3.27 µM) | 16 to 64 (≈ 52.2 to 209 µM) | 2 to 4 (≈ 6.53 to 13.1 µM) | 0.5 to 2 (≈ 1.63 to 6.53 µM) | 0.5 to 2 (≈ 1.63 to 6.53 µM) | 2.0 to 8.0 | 16 to 64 | 0.25 to 1.0 | 0.25 to 1.0 | 0.25 to 1.0 | 1.0 to 4.0 | –
